The test system of one experiment is RPMI8226 cells. Briefly: MTT assay, VEGF-induced proliferation of RPMI8226 cells. The class given is cell-based. The note with it: for biological activity of the analogue relative to the 7-mer (summary statement of the description): summary of Example 1 findings; for effect on VEGF-induced proliferation of RPMI8226 cells: VEGF 50 ng/ml, 25 μM peptide, 24 hrs, MTT. As to the method:
The multiple myeloma line RPMI8226 was cultivated in complex medium (RPMI1640) supplemented with 10% (vol/vol) heat-inactivated fetal calf serum (Invitrogen), 50 μg/mL penicillin, 50 μg/mL streptomycin, and 2 mM L-glutamine at 37° C. in a 5% CO2 atmosphere. RPMI8226 cells were cultured in serum-free RPMI1640 medium for 24 hrs, and then cells were seeded in 48-well culture plates (3×10^5 cells/well) and continued to culture in 0.5 ml fresh serum-free RPMI1640 medium containing 25 μM peptide for another 24 hrs. The cell viability was determined by the MTT assay. Briefly, 50 μL of MTT stock solution (50 μL) (5 mg MTT dissolved in 1 ml of sterile PBS) was added to each culture well. In addition, 50 μL of the MTT stock solution was added in 500 μL of medium as the negative control. The culture plate was incubated at 37° C. for 4 hours. Aliquots (450 μl) from each sample were taken to a new well of 48-well culture plate, adding 100 μL DMSO, mixing thoroughly using the pipette and reacted at 37° C. for 20 min and read absorbance at 570 nm. These synthesized peptides were then subject to MTT assay, in which vascular endothelial growth factor (VEGF) was used as a stimulant to induce cell proliferation. Results are depicted in FIGS. 1 to 4.

Experiment [1] has as its system HUVECs. Briefly: VEGF-induced HUVEC proliferation assay. The format is cell-based. The note with it: vs untreated HUVECs. How it is done: HUVECs (1×10^5 cells per well of 6-well plate) were grown in Medium 200 with Low Serum Growth Supplement (LSGS Kit, supplement contains 1.9% FBS, 3 ng/ml bFGF, 10 μg/ml heparin, 1 μg/ml hydrocortisone, and 10 ng/ml EGF). Culture plates were coated with 2% gelatin. Cells (passages 4-8) were cultured at 37° C. in a humidified atmosphere of 5% CO2. […]
HUVECs (1×10^5 cells per well of 6-well plate) in Medium 200 supplemented with LSGS Kit were allowed to grow onto 6-well plates coated with 2% gelatin for 24 hours at 37° C. in 5% CO2. The culture medium was then replaced with serum free Medium 200 overnight. […] Then, cells were harvested by trypsin-EDTA and counted using a hemocytometer.

Experiment [2] has as its system HUVECs. As to the kind of experiment: Endothelial cell capillary-like tube formation assay. The class given is cell-based. The note with it: vs untreated HUVECs. As to the method:
To examine the effect of the present synthetic peptide on in vitro angiogenesis, growth factor-reduced matrigel was pipetted into pre-chilled 24-well plates (150 μl matrigel per well) and polymerized for 45 min at 37° C. […] In this experiment, images were captured using a Cannon camera on Zeiss inverted microscope with magnification ×40 and tube length was quantified using Image analysis software (Image-Pro Plus). The control peptide as used in the present invention has the sequence of DLYRVR (SEQ ID NO: 10).

Another experiment deals with rat aortic ring. Briefly: Rat aortic ring assay (ex vivo microvessel sprouting). On the set-up: species or system Sprague Dawley rats. The following applies: beta-FGF induced; peptide 50 μM. As to the method: Thoracic aortas were removed from euthanized 10-week-old male Sprague Dawley rats, and gently stripped off periaortic fibroadipose tissue. Aortas were sectioned to about 2-mm length rings, which were embedded in Matrigel. To induce angiogenesis, human recombinant bFGF (50 ng/ml) or bFGF plus the peptide (50 μM) was added in Matrigel. Gel (200 μl) containing an aortic ring was polymerized in 12-well plates (37° C. for 30 min) and then incubated with 1 ml of Medium 200 supplemented with 100 units/ml penicillin, and […] streptomycin and 2% FBS at 37 ° C. The cultures were propagated at 37 ° C. in a humidified incubator for up to 7 days. Sprouts were recorded using an inverted microscope platform (Leica DM16000B) with bright-field optics. Each ring was scored by three independent observers on a scale 0-4 depending on the degree of sprouting vessel being observed (0=no sprouting, 4=profuse sprouting). The experiment was repeated in triplicates.

A further experiment deals with B16-F10 melanoma cells. Briefly: Experimental pulmonary metastasis in mice. The class given is in vivo, C57BL/6 mice. The note with it: for effect on number of colonies on the surface of the lung / in vivo metastasis / No. lung colonies: 10 mg/Kg intraperitoneal every 2 days; for No. lung colonies: day 8, n = 5; for Inhibition (%): lung colonies vs vehicle, 10 mg/Kg. How it is done: 2×10^5 B16-F10 cells were suspended in 100 μl PBS and checked for viability using trypan blue staining (>95%). The B16-F10 cells were then injected into the tail vein of the 6-week-old female C57BL/6 mice; while vehicle (DMSO), the present synthetic peptide or the control peptide (10 mg/kg) were administered by intraperitoneal injections every 2 days after the B16-F10 cell injection. Five mice were used for each group. On day 8 after inoculation of cells, the lungs were removed, and the number of visible colonies on the surface of the lungs were counted using a dissecting microscope.
Metastasis is the foremost cause of death from cancer. In this example, to investigate the efficacy of the present synthetic peptide on the metastasis of cancer cells, B16-F10 cells were injected into the tail vein of a mouse, the animal was then treated with the present synthetic peptide (7-mer or 7-mer DD, 10 mg/Kg) by intraperitoneal injections every 2 days. Upon completion of the experiment, the lungs were then removed and the tumor colonies visible to the eyes were then counted. Results are depicted in FIG. 10.

The test system of experiment [3] is STZ-induced diabetic mice. Briefly: Vascular abnormalities in the retina of diabetic mice. The class given is in vivo. The note with it: for Fluorescence Intensity (Fold): leaked FITC-BSA in entire retina, vs vehicle. As to the method:
Diabetic mice were generated by a single intraperitoneal injection of streptozotocin (STZ) (150 mg/kg body weight). STZ was freshly prepared in 0.1 M citrate buffer (pH 4.5). After injection, mice were supplied with 10% sucrose overnight to prevent sudden hypoglycemic shock. After 1 week, mice with non-fasting blood glucose levels >500 mg/dl were defined as diabetic and used for the experiments. DMSO Vehicle or the present synthetic peptide (10 mg/kg; n≥3 per peptide) were administered by intraperitoneal injections twice a day. After treatment for 24 h, mice were intraperitoneal injected with 100 mg/kg of BSA-FITC for further 30 min.
To determine vascular lesions (hemorrhaging areas) in retina, the animals were euthanized by CO2 inhalation, and the eyes were enucleated and fixed by 2% paraformaldehyde for 2 hr and flat-mounted onto glass slides to obtain optical sections by an epifluorescence microscopy. Vascular lesions in the retina was scored in all four retinal quadrants of flat mounts by using a 20× objective. Six microscopic fields were sampled in each quadrant in both the central and peripheral retina, and data were presented as the average number of lesions/retina.
Vascular FITC-BSA leakage was determined by a fluorescence spectrofluorometer based on standard curves of FITC-BSA at excitation and emission wavelengths of 488 and 535 nm, respectively, and then normalized to a non-injected control retina. For this analysis, retinas were dissected from treated and untreated diabetic mice after BSA-FITC injections, and each was solubilized in 300 μL ice-cold PBS.
Diabetic retinopathy is characterized by blood-retinal barrier (BRB) breakdown and neurotoxicity. To evaluate the possible beneficial effect of the present synthetic peptides on diabetic retinopathy, STZ-induced diabetic mice were intraperitoneally injected with 7-mer peptide, DMSO vehicle or the control peptide (SEQ ID NO: 22). The retinal vascular abnormality was then monitored by detecting the extravasation of BSA-fluorescein. Results are depicted in FIG. 11.

The mark [4] stands for this setting: VEGF (10 ng/mL) + 25 μM peptide.

“And” between values parts separate entries of the source, which are not always exact repeats. Equal values may be shown once. Square brackets hold non-standard residues; d marks the D form. Ends that are not written are not given here.

Regarding H-DLYR[dV]RS-OH [7-mer DV], the “dose dependence of inhibitory action on VEGF-induced cell proliferation” value with RPMI8226 cells (1 to 25 μM, RPMI8226 cells) is recorded as “dose dependent manner”. Besides, the “Cell number (Fold)” value in the experiment on HUVECs [1] (setting [4]) is recorded as 0.99 ± 0.078 Fold. For the same substance, the “Tube length (Fold)” value in the experiment with HUVECs [2] (setting [4]) came out at 1.24 ± 0.18 Fold. Further, the “level of sprouting microvessels around the aortic ring” value in the experiment with rat aortic ring was “inhibited”. In the experiment with B16-F10 melanoma cells, the “effect on number of colonies on the surface of the lung / in vivo metastasis” value is reported as “may suppress in vivo metastasis”, the No. lung colonies turned out to be 51 ± 17.0 and the “Inhibition (%)” value was 77.4%. Further, in experiment [3], the “extravasation of FITC-BSA” value was “may significantly prevent” and the “Fluorescence Intensity (Fold)” value was determined as 0.31 ± 0.072 Fold.

On to H-D[dL]YRVRS-OH [7-mer DL], for which the “biological activity of the analogue relative to the 7-mer (summary statement of the description)” value with RPMI8226 cells is recorded as “lose its biological activity”.

As for “NH2-Ala-Leu-Tyr-Arg-Val-Arg-Ser-COOH (ALYRVRS; not fully specified (N-terminus, C-terminus); printed as NH2-Ala-Leu-Tyr-Arg-Val-Arg-Ser-COOH) [7-mer Da]”, in the experiment with RPMI8226 cells, the “effect on VEGF-induced proliferation of RPMI8226 cells” value (shortened to “effect on VEGF-induced proliferation”) is given as “sustained part of the 7-mer activity”.

For the substance “NH2-Asn-Val-Tyr-Arg-Val-Arg-Ser-COOH (NVYRVRS; not fully specified (N-terminus, C-terminus); printed as NH2-Asn-Val-Tyr-Arg-Val-Arg-Ser-COOH) [7-mer NV]”, in the experiment with RPMI8226 cells, the “effect on VEGF-induced proliferation” value was “could sustain 7-mer bioactivity, only partly”. Also, the “Cell number (Fold)” value in the experiment on HUVECs [1] (setting [4]) turned out to be 1.01 ± 0.086 Fold. In addition, in the experiment on HUVECs [2] (setting [4]), the “Tube length (Fold)” value turned out to be 1.41 ± 0.32 Fold. Besides, the “level of sprouting microvessels around the aortic ring” value in the experiment with rat aortic ring is on record as “inhibited”. Further, in the experiment on B16-F10 melanoma cells, the “effect on number of colonies on the surface of the lung / in vivo metastasis” value was “may suppress in vivo metastasis”, the No. lung colonies was 55 ± 16.5 and the “Inhibition (%)” value is recorded as 75.8%. Besides, in experiment [3], the “extravasation of FITC-BSA” value was “may significantly prevent” and the “Fluorescence Intensity (Fold)” value turned out to be 0.35 ± 0.11 Fold.

With “NH2-Asp-(D-Leu)-Tyr-Arg-Val-(D-Arg)-Ser-COOH (H-D[dL]YRV[dR]S-OH) [7-mer DR2]”, the “biological activity of the analogue relative to the 7-mer (summary statement of the description)” value in the experiment on RPMI8226 cells was “lose its biological activity”.

As to “NH2-Asp-Ala-Tyr-Arg-Val-Arg-Ser-COOH (DAYRVRS; not fully specified (N-terminus, C-terminus); printed as NH2-Asp-Ala-Tyr-Arg-Val-Arg-Ser-COOH) [7-mer La]”, the “effect on VEGF-induced proliferation” value with RPMI8226 cells was “sustained part of the 7-mer activity”.

With “NH2-Asp-Leu-(D-Tyr)-Arg-Val-Arg-Ser-COOH (H-DL[dY]RVRS-OH) [7-mer DY]”, in the experiment with RPMI8226 cells, the “biological activity of the analogue relative to the 7-mer (summary statement of the description)” value was “lose its biological activity”. In addition, the “Cell number (Fold)” value in the experiment on HUVECs [1] (setting [4]) is given as 1.63 ± 0.077 Fold.

Consider “NH2-Asp-Leu-Tyr-(D-Arg)-Val-Arg-Ser-COOH (H-DLY[dR]VRS-OH) [7-mer DR]”, for which the “biological activity of the analogue relative to the 7-mer (summary statement of the description)” value with RPMI8226 cells is on record as “lose its biological activity”.

With “NH2-Asp-Leu-Tyr-Arg-Val-Gln-Ser-COOH (DLYRVQS; not fully specified (N-terminus, C-terminus); printed as NH2-Asp-Leu-Tyr-Arg-Val-Gln-Ser-COOH) [7-mer (R2→Q)]”, the “effect on VEGF-induced proliferation” value in the experiment with RPMI8226 cells is “could sustain 7-mer bioactivity, only partly”.

For the substance “NH2-Asp-Val-Phe-Arg-Val-Arg-Thr-COOH (DVFRVRT; not fully specified (N-terminus, C-terminus); printed as NH2-Asp-Val-Phe-Arg-Val-Arg-Thr-COOH) [7-mer VFT]”, in the experiment with RPMI8226 cells, the “effect on VEGF-induced proliferation” value is reported as “could sustain 7-mer bioactivity, only partly” and the “biological activity of the analogue relative to the 7-mer (summary statement of the description)” value is recorded as “relatively the same bioactivity”.

Regarding “NH2-Leu-Leu-Tyr-Arg-Val-Arg-Ser-COOH (LLYRVRS; not fully specified (N-terminus, C-terminus); printed as NH2-Leu-Leu-Tyr-Arg-Val-Arg-Ser-COOH) [7-mer (D→L)]”, in the experiment with RPMI8226 cells, the “effect on VEGF-induced proliferation” value is listed as “could sustain 7-mer bioactivity, only partly” and the “biological activity of the analogue relative to the 7-mer (summary statement of the description)” value is “relatively the same bioactivity”.

“NH2-Phe-Leu-Tyr-Arg-Val-Arg-Ser-COOH (FLYRVRS; not fully specified (N-terminus, C-terminus); printed as NH2-Phe-Leu-Tyr-Arg-Val-Arg-Ser-COOH) [7-mer (D→F)]”: in the experiment with RPMI8226 cells, the “effect on VEGF-induced proliferation” value is “could sustain 7-mer bioactivity, only partly” and the “biological activity of the analogue relative to the 7-mer (summary statement of the description)” value is “relatively the same bioactivity”.

For the substance “NH2-Val-Leu-Tyr-Arg-Val-Arg-Ser-COOH (VLYRVRS; not fully specified (N-terminus, C-terminus); printed as NH2-Val-Leu-Tyr-Arg-Val-Arg-Ser-COOH) [7-mer (D→V)]”, in the experiment with RPMI8226 cells, the “effect on VEGF-induced proliferation” value is given as “could sustain 7-mer bioactivity, only partly” and the “biological activity of the analogue relative to the 7-mer (summary statement of the description)” value was “relatively the same bioactivity”.

With VEGF [reference compound], the “Cell number (Fold)” value with HUVECs [1] (VEGF (10 ng/mL) alone) was 1.62 Fold and 1.62 ± 0.070 Fold. Further, in the experiment with HUVECs [2] (VEGF (10 ng/mL) alone), the “Tube length (Fold)” value is 3.43 ± 0.32 Fold.

Values taken from patent publication US10463709B2, “Short synthetic peptide for treating diseases and/or conditions related to angiogenesis” (MacKay Memorial Hospital, priority 2015, dated 2019).
